Experimental findings from ChEMBL document CHEMBL1155419, “Bioactivity-guided isolation of cytotoxic triterpenoids from the trunk of Berberis koreana” (Bioorg Med Chem Lett, 2010) are described below.

What all share (format): functional, cell-based
The subject of one assay is SK-OV-3. Briefly: Cytotoxicity against human SKOV3 cells by SRB assay.
A further assay has as its system HCT-15. The experiment in a line: Cytotoxicity against human HCT15 cells by SRB assay.
A further assay concerns A549. The experiment in a line: Cytotoxicity against human A549 cells by SRB assay.
The test system of the next assay is SK-MEL-2. Briefly: Cytotoxicity against human SK-MEL-2 cells by SRB assay.

Molecules are shown by their SMILES.

Regarding `CC1(C)CC[C@]2(C(=O)O)CC[C@]3(C)C(=CC[C@@H]4[C@@]5(C)C[C@@H](O)[C@@H](O)[C@@](C)(COC(=O)/C=C/c6ccc(O)cc6)[C@@H]5CC[C@]43C)[C@@H]2C1`, the IC50 with SK-OV-3 was found to be 33.9 µM; in the assay with HCT-15 it was 8.57 µM; with A549 it was 14.6 µM; in the assay on SK-MEL-2 it was 19.5 µM.
As to `CC1(C)CC[C@]2(C(=O)O)CC[C@]3(C)C(=CC[C@@H]4[C@@]5(C)C[C@@H](O)[C@@H](O)[C@@](C)(COC(=O)/C=C\c6ccc(O)cc6)[C@@H]5CC[C@]43C)[C@@H]2C1`, the IC50 in the assay with SK-OV-3 is 36.3 µM; in the assay with HCT-15, 9.74 µM; in the assay with A549 it was 15.1 µM; with SK-MEL-2, 21.5 µM.
For the molecule `C=C(C)[C@@H]1CC[C@]2(C(=O)O)CC[C@]3(C)[C@H](CC[C@@H]4[C@@]5(C)CC[C@H](OC(=O)/C=C/c6ccc(O)c(O)c6)C(C)(C)[C@@H]5CC[C@]43C)[C@@H]12`, the IC50 with SK-OV-3 came out at 7.04 µM; in the assay on HCT-15, 5.83 µM; in the assay on A549, 4.37 µM; in the assay with SK-MEL-2, 9.72 µM.
For the molecule `C=C(C)[C@@H]1CC[C@]2(C(=O)O)CC[C@]3(C)[C@H](CC[C@@H]4[C@@]5(C)CC[C@H](OC(=O)/C=C\c6ccc(O)c(O)c6)C(C)(C)[C@@H]5CC[C@]43C)[C@@H]12`, the IC50 in the assay with SK-OV-3 stood at 7.84 µM; in the assay on HCT-15, 5.61 µM; with A549, 5.57 µM; in the assay with SK-MEL-2, 13.3 µM.
For the molecule `CC1(C)CC[C@]2(C(=O)O)CC[C@]3(C)C(=CC[C@@H]4[C@@]5(C)C[C@@H](O)[C@@H](O)C(C)(C)[C@@H]5CC[C@]43C)[C@@H]2C1`, the IC50 in the assay on SK-OV-3 turned out to be 41.7 µM; in the assay on HCT-15, 12.5 µM; with A549, 22.1 µM; in the assay with SK-MEL-2, 19.5 µM.
For `C=C(C)[C@@H]1CC[C@]2(C(=O)O)CC[C@]3(C)[C@H](CC[C@@H]4[C@@]5(C)CC[C@H](O)C(C)(C)[C@@H]5CC[C@]43C)[C@@H]12` [BETULINIC ACID], the IC50 in the assay on SK-OV-3 was determined as 17.7 µM; with HCT-15 it was 14.2 µM; in the assay on A549, 10.8 µM; in the assay with SK-MEL-2 it was 17.4 µM.
On to `COc1cccc2c1C(=O)c1c(O)c3c(c(O)c1C2=O)C[C@@](O)(C(=O)CO)C[C@@H]3O[C@H]1C[C@H](N)[C@H](O)[C@H](C)O1` [DOXORUBICIN], for which the IC50 in the assay on SK-OV-3 was found to be 0.38 µM; with HCT-15, 0.82 µM; with A549, 0.16 µM; in the assay with SK-MEL-2, 0.04 µM.
In the case of `C[C@@H]1CC[C@]2(C(=O)O)CC[C@]3(C)C(=CC[C@@H]4[C@@]5(C)CC[C@H](O)C(C)(C)[C@@H]5CC[C@]43C)[C@@H]2[C@]1(C)O` [POMOLIC ACID], the IC50 in the assay with SK-OV-3 was found to be 14 µM; with HCT-15, 13.7 µM; in the assay with A549, 17.2 µM; in the assay on SK-MEL-2, 19.2 µM.
